Experimental data: patent US20240342080A1, “COMPOSITIONS AND METHODS FOR INHIBITING HUMAN BLOOD PROTEIN VITRONECTIN” (Sanford Burnham Prebys Medical Discovery Institute, priority 2021, published 2024)

Tests used:
[1] = system: HAP deposited on spherules; experiment: In vitro drusen model: production of HAP-protein-lipid proto-spherules (fluorescence emission reflects HAP deposited); assay type: biochemical
Text: (§1) An in vitro assay was designed to produce proto-spherule like those found in AMD drusen. HAP was detected with a specific fluorescent dye. This assay was used to discover inhibitors.
(§2) In Vitro Drusen Model: Production of HAP-Protein-Lipid Proto-Spherules
(§3) In this model, fluorescence emission reflected the amount of HAP deposited on spherules. The results are show in FIG. 1. […] Pyrophosphate (PPi) is a mineralization inhibitor and serves as negative control. There are many HAP-binding proteins but Vn is unique: it plays an active role in HAP mineralization.

[2] = target: T1, human blood protein vitronectin (Vn) (Homo sapiens, UniProt P04004); experiment: In vitro drusen model used to test Vn antibodies as inhibitors of Vn-dependent HAP deposition; assay type: biochemical; conditions: FIG. 2
T1 construct: made in house; host or cells: Escherichia coli
T1 sequence (P04004 20-478): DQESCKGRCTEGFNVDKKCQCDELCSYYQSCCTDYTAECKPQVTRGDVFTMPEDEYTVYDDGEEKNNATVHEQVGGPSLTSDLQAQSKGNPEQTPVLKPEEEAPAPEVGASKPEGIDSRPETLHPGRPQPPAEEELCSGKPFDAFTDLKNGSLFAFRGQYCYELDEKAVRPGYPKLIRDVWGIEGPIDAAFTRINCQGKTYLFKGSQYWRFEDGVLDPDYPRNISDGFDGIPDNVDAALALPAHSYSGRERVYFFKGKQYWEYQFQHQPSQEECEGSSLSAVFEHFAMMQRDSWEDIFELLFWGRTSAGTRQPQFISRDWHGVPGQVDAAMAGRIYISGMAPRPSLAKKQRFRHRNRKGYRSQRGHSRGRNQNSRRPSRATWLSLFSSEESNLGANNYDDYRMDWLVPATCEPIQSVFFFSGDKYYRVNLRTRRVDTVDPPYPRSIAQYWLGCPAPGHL
Description: as §1
Vn was prepared from Escherichia coli. All buffer solutions were prepared with Milli-Q deionized water. For calcium-free preparations, the protein was folded by dropwise dilution from buffer T1 (20 mM Tris HCl pH 8, 6 M guanidine, 10 mM dithiothreitol) into buffer T2 (20 mM Tris HCl pH 8, 500 mM ArgCl, 300 mM NaCl, 5 mM β-mercaptoethanol, 1 mM hydroxyethyldisulfide), followed by dialysis into buffer MI (20 mM MES, pH 6.5, 300 mM NaCl) and size exclusion chromatography (Superdex 200 10/300 GL, GE Healthcare). Calcium-containing samples were prepared by supplementing buffer MI with CaCl2).
as §2, §3
This assay was used to test Vn antibodies (need details on Abc, Abm and Abn and IGF II) as potential inhibitors.

Substance | effect on HAP deposition / mineralization on spherules (fluorescence emission) ([1]; FIG. 1) | effect on HAP deposition / mineralization on spherules (fluorescence emission) ([1]; FIG. 1, listed as Vn) | effect on HAP deposition (fluorescence emission) [2]
Vitronectin: human blood protein vitronectin, prepared from Escherichia coli | increases HAP deposition on spherules in a dose-dependent and time-dependent manner | promotes HAP formation | promotes HAP deposition in a dose- and time-dependent manner
Amyloid-β (Aβ): Amyloid-β, comparison protein in the in vitro drusen model [reference compound] | no significant effect on HAP mineralization |  | 
